Results published in patent US12365686B2, “Compound as porcupine inhibitor and use thereof” (JIANGSU KANION PHARMACEUTICAL CO., LTD., priority 2019, dated 2025).

Tests used:
[1] = tested on: STF reporter gene for WNT pathway (Porcupine of the Wnt signaling pathway); assay: Inhibitory activity on Super-Top-Flash (STF) reporter gene; type: cell-based; details: HEK293 STF and L wnt3A cells 1:1, 24 hours, Bright-Glo
Description: 1. Assay of Inhibitory Activity on Super-Top-Flash (STF) Reporter Gene
HEK293 STF and L wnt3A cells were planted at a ratio of 1:1 in a white 96-well plate with 80 μL of cell suspension per well, which contained 20,000 HEK293 STF cells and 20,000 L wnt3A cells. The cell plate was placed in a carbon dioxide incubator for culture overnight.
The assay compound was serially diluted 5-fold with a discharge gun to the 8th concentration, that is, from 400 μM to 5.12 nM, in duplicate. 78 μL of medium was added to the middle plate, and then 2 μL of the serially diluted compound was transferred to each well of the middle plate according to the corresponding position. After mixing, 20 μL of the mixture was transferred to each well of the cell plate. The cell plate was placed in a carbon dioxide incubator for 24 hours.
100 μL of Promega Bright-Glo reagent was added to each well of the cell plate, and the cell plate was incubated at room temperature for 10 minutes to stabilize the luminescence signal. A multi-label analyzer was used to read results.
The original data of the multi-label analyzer was used for calculation, and the value of IC50 can be obtained by curve fitting. Table 1 provides data of the inhibitory activity of the compounds of the present disclosure on the Wnt signaling pathway.

Capan-2 cells = assay: Anti-proliferative activity on Capan-2 cells; type: cell-based; details: Homo sapiens, Capan-2, 120 h; 5 days, CellTiter-Glo
Description: 2. Assay of Anti-Proliferative Activity on Capan-2 Cells
Capan-2 cells were planted in a white 96-well plate with 80 μL of cell suspension per well, which contained 5000 Capan-2 cells. The cell plate was placed in a carbon dioxide incubator for culture overnight.
The assay compound was serially diluted 3-fold with a discharge gun to the 9th concentration, that is, from 200 μM to 30 nM, in duplicate. 78 μL of medium was added to the middle plate, and then 2 μL of the serially diluted compound was transferred to each well of the middle plate according to the corresponding position. After mixing, 20 μL of the mixture was transferred to each well of the cell plate. The cell plate was incubated in a carbon dioxide incubator for 5 days. Another cell plate was prepared, and read on the day of drug addition. The signal value was used as the maximum value (The value of Max in the equation below) in data analysis. 25 μL of chemiluminescence detection reagent for cell viability was added to each well of this cell plate, and this cell plate was incubated at room temperature for 10 minutes to stabilize the luminescence signal. A multi-label analyzer was used to read results.
After the cell plate was cultured for 5 days, 25 μL of Promega CellTiter-Glo reagent was added to each well of the cell plate. The cell plate was incubated at room temperature for 10 minutes to stabilize the luminescence signal. A multi-label analyzer was used to read results.
The value of IC50 can be obtained by curve fitting. Table 2 provides the inhibitory activity of the compounds of the present disclosure on Capan-2 cell proliferation.

[2] = tested on: human pancreatic cancer Capan-2 xenograft tumor; assay: In vivo drug efficacy on Capan-2 transplanted tumor in nude mice; details: 5 mg/Kg, BID, 31 days, Capan-2 Xenograft model
Description: 3. Assay of In Vivo Drug Efficacy on Capan-2 Transplanted Tumor in Nude Mice
Capan-2 cells were cultured in McCoy's 5A medium, containing 10% fetal bovine serum FBS, in a 37° C. incubator with 5% CO2. Tumor cells were collected after passaging and growing to a suitable concentration and during the logarithmic growth phase. The cells resuspended in McCoy's 5A medium were counted and the cell suspension was adjusted to a concentration of 2×10^7/mL for inoculation.
Establishment of human pancreatic cancer Capan-2 xenograft tumor. Cells were collected and the concentration was adjusted to 2×10^7 (resuspend with McCoy's 5A medium to a cell suspension containing 50% Martigel). Under aseptic conditions, 0.1 mL of tumor cells was injected subcutaneously into the right back of the mouse, and the number of cells inoculated per mouse was 2×10^6. After the tumor was grown to a certain size, digital vernier calipers was used to measure the length (a) and width (b) of the tumor, and the tumor volume was calculated. The calculation formula of tumor volume (TV) was: TV=a×b^2/2.
Capan-2 tumor cells were inoculated. When the tumor was grown to about 150 cubic millimeters, mice were divided into groups with 6 mice in each group. The day of grouping was regarded as day 0, and the drug was administered on the day of grouping. During the assay, the animal's body weight and tumor size were measured twice a week, and the animal's clinical symptoms were observed and recorded every day. For each administration, the most recently weighed animal body weight was referred to.
The evaluation index of anti-tumor activity is relative tumor proliferation rate T/C (%), wherein T/C (%)>40% means ineffective, and T/C (%)<40% and statistically P<0.05 means effective. The calculation formula of T/C (%) is: T/C (%)=(TRTV/CRTV)×100%. TRTV is relative tumor volume of the treatment group, and CRTV is relative tumor volume of the negative control group. TGI (%)^b tumor inhibition rate=(average tumor volume or weight of negative control group-average tumor volume or weight of administration group)/average tumor volume or weight of negative control group×100%. TGI (%)^a=[(1−(average tumor volume of a certain administration group at the time of measurement-average tumor volume of the administration group at the beginning of the administration))/(average tumor volume of vehicle control group at the time of measurement-average tumor volume of the vehicle control group at the beginning of the administration)]×100%.

SMILES | IC50 [1] [nM] | IC50 (Capan-2 cells) [nM] | T/C % [2] [%] | TGI % [2] [%]
Cc1cc(-c2ncc(CNc3nccn4c(C(=O)Nc5ccccc5)cnc34)cc2C)ccn1 [15 (formate)] | 0.15 |  |  | 
Cc1cc(-c2ncc(CNc3nccn4c(-c5cccnc5)cnc34)cc2C)ccn1 [Compound 2] | 0.12 | 4.26 |  | 
Cc1cc(-c2ncc(CNc3nccn4c(-c5ccc(F)cc5)cnc34)cc2C)ccn1 [Compound 3] | 0.96 |  |  | 
Cc1cc(-c2ncc(CNc3nccn4c(-c5cnn(C)c5)cnc34)cc2C)ccn1 [Compound 4] | 0.14 | 964 |  | 
Cc1cc(-c2ncc(CNc3nccn4c(N5CCNCC5)cnc34)cc2C)ccn1 [Compound 5] | 9.7 |  |  | 
CC(=O)N1CCN(c2cnc3c(NCc4cnc(-c5ccnc(C)c5)c(C)c4)nccn23)CC1 [Compound 6] | 0.58 |  |  | 
Cc1cc(-c2ncc(CNc3nccn4c(-c5ccc(C#N)cc5)cnc34)cc2C)ccn1 [Compound 8] | 6.56 | 109 |  | 
COc1ccc(-c2cnc3c(NCc4cnc(-c5ccnc(C)c5)c(C)c4)nccn23)cc1 [Compound 9 (formate)] | 8.95 | 103 |  | 
Cc1cc(-c2ncc(CNc3nccn4c(C5CC5)cnc34)cc2C)ccn1 [Compound 10] | 13.5 | > 1000 |  | 
Cc1cc(-c2ncc(CNc3nccn4c(-c5ccccc5)ncc34)cc2C)ccn1 [Compound 11] | 0.05 |  | 31.29 | 82.8
Cc1cc(-c2ncc(CNc3nccn4c(C5CCN(C(C)C)CC5)cnc34)cc2C)ccn1 [Compound 13 (formate)] | 0.56 |  |  | 
CC(=O)N1CCC(c2cnc3c(NCc4cnc(-c5ccnc(C)c5)c(C)c4)nccn23)CC1 [Compound 14] | < 0.001 |  |  | 
Cc1cc(-c2ncc(CNc3nccn4c(C(=O)N(C)C)cnc34)cc2C)ccn1 [Compound 16] | < 0.001 |  |  | 
Cc1cc(-c2ccc(CNc3nccn4c(-c5ccccc5)cnc34)cc2C)ccn1 [Compound 17] | 0.23 | 1.45 |  | 
